Where a name gives a salt, the structure may show the parent alone.

The target in this test is TTX resistant Na channel of human SNS-expressing cell (SNS) (Homo sapiens, UniProt Q9Y5Y9). Put plainly: cell-based. Conditions: CHO-K1, compound concentration 12.5 μM; read-out: SNS inhibitory rate (%).
Chain of TTX resistant Na channel of human SNS-expressing cell (SNS) (Q9Y5Y9 whole entry, looked up): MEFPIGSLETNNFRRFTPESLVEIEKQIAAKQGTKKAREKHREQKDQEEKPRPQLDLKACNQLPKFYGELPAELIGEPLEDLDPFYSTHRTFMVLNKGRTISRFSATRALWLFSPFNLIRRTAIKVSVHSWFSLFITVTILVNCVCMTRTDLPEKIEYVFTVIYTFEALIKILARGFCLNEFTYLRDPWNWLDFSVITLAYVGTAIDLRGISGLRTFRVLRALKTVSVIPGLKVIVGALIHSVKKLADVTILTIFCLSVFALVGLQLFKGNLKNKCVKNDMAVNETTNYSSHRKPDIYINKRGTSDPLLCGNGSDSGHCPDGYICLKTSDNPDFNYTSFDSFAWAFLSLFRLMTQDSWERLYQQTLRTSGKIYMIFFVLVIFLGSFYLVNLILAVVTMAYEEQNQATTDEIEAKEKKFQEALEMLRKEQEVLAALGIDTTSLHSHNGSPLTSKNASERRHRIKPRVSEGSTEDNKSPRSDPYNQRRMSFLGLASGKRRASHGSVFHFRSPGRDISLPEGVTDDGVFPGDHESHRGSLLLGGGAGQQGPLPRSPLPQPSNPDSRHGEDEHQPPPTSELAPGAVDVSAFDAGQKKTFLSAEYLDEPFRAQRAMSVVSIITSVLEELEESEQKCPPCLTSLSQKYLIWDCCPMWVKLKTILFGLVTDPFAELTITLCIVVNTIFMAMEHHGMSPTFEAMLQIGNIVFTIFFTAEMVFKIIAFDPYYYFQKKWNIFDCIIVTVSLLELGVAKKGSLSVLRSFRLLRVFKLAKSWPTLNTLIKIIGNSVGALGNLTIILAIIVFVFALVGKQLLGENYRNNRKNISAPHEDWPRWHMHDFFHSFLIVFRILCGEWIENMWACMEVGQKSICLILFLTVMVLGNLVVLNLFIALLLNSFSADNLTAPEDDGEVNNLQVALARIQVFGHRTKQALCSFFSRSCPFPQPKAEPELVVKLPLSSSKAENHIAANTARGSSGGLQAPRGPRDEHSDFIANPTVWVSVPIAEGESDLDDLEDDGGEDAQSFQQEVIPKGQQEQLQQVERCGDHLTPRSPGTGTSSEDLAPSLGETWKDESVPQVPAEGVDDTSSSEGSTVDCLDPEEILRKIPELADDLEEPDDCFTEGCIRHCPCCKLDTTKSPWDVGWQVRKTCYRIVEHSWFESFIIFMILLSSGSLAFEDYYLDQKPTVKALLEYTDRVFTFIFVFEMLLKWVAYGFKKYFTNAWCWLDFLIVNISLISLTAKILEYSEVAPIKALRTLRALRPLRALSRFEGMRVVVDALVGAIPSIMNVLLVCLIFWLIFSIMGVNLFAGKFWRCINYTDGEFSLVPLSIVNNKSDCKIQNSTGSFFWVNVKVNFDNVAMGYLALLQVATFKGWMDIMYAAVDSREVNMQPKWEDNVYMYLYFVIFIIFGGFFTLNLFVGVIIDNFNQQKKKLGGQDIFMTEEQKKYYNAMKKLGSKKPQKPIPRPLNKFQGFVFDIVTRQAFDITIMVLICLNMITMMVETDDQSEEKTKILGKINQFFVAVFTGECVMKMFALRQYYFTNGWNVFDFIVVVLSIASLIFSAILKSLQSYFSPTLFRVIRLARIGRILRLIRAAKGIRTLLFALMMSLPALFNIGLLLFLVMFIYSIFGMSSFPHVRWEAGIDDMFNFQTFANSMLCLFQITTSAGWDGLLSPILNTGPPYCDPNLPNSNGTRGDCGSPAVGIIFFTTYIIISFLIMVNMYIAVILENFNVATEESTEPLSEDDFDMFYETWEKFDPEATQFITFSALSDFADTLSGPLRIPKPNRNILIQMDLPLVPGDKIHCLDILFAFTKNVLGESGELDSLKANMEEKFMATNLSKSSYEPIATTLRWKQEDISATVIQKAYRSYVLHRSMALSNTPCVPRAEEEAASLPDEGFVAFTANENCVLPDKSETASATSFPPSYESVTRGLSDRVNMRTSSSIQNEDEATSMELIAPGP
Regarding `CCOCCn1c(CN[C@@H](C)C(N)=O)nc2ccc(Oc3ccc(OC)cc3)cc21` [Example 75, N^2-{[1-(2-ethoxyethyl)-6-(4-methoxyphenoxy)-1H-benzimidazol-2-yl]methyl}-L-alaninamide], the inhibition at 12.5 µM was 0%.

Take `CCOCCn1c(CN[C@H](C(N)=O)C(C)C)nc2ccc(Oc3ccccc3)cc21` [Example 38]: the inhibition at 12.5 µM amounted to 48.8%.

Consider `C[C@H](NCc1nc2ccc(Oc3ccc(OC(F)(F)F)cc3)cc2n1C1CC1)C(N)=O` [Example 100], for which the inhibition at 12.5 µM was found to be 72.1%.

Consider `CCOCCn1c(CN[C@@H](C)C(N)=O)nc2ccc(Oc3cc(F)c(F)c(F)c3)cc21` [Example 44], for which the inhibition at 12.5 µM amounted to 84.9%.

With `C[C@H](NCc1nc2ccc(Oc3ccc(F)cc3)cc2n1C1CCOCC1)C(N)=O` [Example 6], the inhibition at 12.5 µM worked out at 77.8%.

`COCCn1c(CNC(C)(C)C(N)=O)nc2ccc(Oc3ccc(F)cc3)cc21` [Example 91, N^2-{[6-(4-fluorophenoxy)-1-(2-methoxyethyl)-1H-benzimidazol-2-yl]methyl}-2-methylalaninamide]: the inhibition at 12.5 µM came to 76.4%.

Regarding `CC(C)(NCc1nc2ccc(Oc3ccc(F)cc3)cc2n1CCO)C(N)=O` [Example 143], the inhibition at 12.5 µM was determined as 27.7%.

For `CCOCCn1c(CN[C@@H](C)C(N)=O)nc2cc(F)c(-c3ccc(F)c(F)c3)cc21` [Example 183], the inhibition at 12.5 µM was found to be 72.3%.

`CCOCCn1c(CN[C@@H](CC)C(N)=O)nc2ccc(-c3ccc(C)c(C)c3)cc21` [Example 163]: the inhibition at 12.5 µM is 36.5%.

Take `CCOCCn1c(CNCC(N)=O)nc2ccc(-c3ccc(F)cc3)cc21` [Example 67]: the inhibition at 12.5 µM worked out at 30.8%.

Regarding `Cc1ccc(Oc2ccc3nc(CN[C@@H](C)C(N)=O)n(C4CCOCC4)c3c2)cc1` [Example 129], the inhibition at 12.5 µM was 90.3%.

In the case of `CCOCCn1c(CN[C@@H](C)C(N)=O)nc2cc(Cl)c(-c3ccc(F)c(F)c3)cc21` [Example 180], the inhibition at 12.5 µM came out at 4.5%.

Regarding `CCOCCn1c(CN[C@@H](CC)C(N)=O)nc2ccc(-c3ccc(F)cc3)cc21` [Example 150], the inhibition at 12.5 µM stood at 45.6%.

`CCOCCn1c(CN[C@@H](C)C(N)=O)nc2ccc(Oc3ccc(F)cc3Cl)cc21` [Example 93]: the inhibition at 12.5 µM worked out at 82.1%.

Consider `NC(=O)CNCc1nc2ccc(Oc3ccccc3)cc2n1C1CCCC1` [Example 25], for which the inhibition at 12.5 µM amounted to 0%.

For `CCOCCn1c(CNCC(N)=O)nc2ccc(Oc3ccc(F)cc3)cc21` [Example 3, N^2-{[1-(2-ethoxyethyl)-6-(4-fluorophenoxy)-1H-benzimidazol-2-yl]methyl}glycinamide], the inhibition at 12.5 µM is 12.9%.

For `CCn1c(CN[C@@H](C)C(N)=O)nc2cc(F)c(-c3ccc(F)cc3)cc21` [Example 111, N^2-{[1-ethyl-5-fluoro-6-(4-fluorophenyl)-1H-benzimidazol-2-yl]methyl}-L-alaninamide], the inhibition at 12.5 µM is 88.4%.

As for `CC(C)NC(=O)N1CCC(n2c(CN[C@@H](C)C(N)=O)nc3ccc(Oc4ccc(F)cc4)cc32)CC1` [Example 84, 4-[2-({[(2S)-1-amino-1-oxopropan-2-yl]amino}methyl)-6-(4-fluorophenoxy)-1H-benzimidazol-1-yl]-N-(propan-2-yl)piperidine-1-carboxamide], the inhibition at 12.5 µM is 76.8%.

Turning to `CCOCCn1c(CNC(C)(C)C(N)=O)nc2ccc(-c3ccc(F)cc3OC)cc21` [Example 174], the inhibition at 12.5 µM was found to be 33.4%.

`CCOCCn1c(CN[C@@H](C)C(N)=O)nc2ccc(-c3ccc(F)cc3C)cc21` [Example 157]: the inhibition at 12.5 µM came to 89.9%.

Turning to `CCOCCn1c(CN[C@@H](C)C(N)=O)nc2ccc(Oc3cccc(F)c3F)cc21` [Example 58], the inhibition at 12.5 µM turned out to be 71.2%.

`C[C@H](NCc1nc2ccc(Oc3ccc(F)cc3)cc2n1C1CCNCC1)C(N)=O` [Example 83, N^2-{[6-(4-fluorophenoxy)-1-(piperidin-4-yl)-1H-benzimidazol-2-yl]methyl}-L-alaninamide]: the inhibition at 12.5 µM was 0%.

Turning to `NC(=O)[C@@H]1CCCN1Cc1nc2ccc(Oc3ccccc3)cc2n1C[C@H]1CCCO1` [Example 19], the inhibition at 12.5 µM was 100%.

For `C[C@H](NCc1nc2ccc(Oc3ccc(F)cc3)cc2n1C1CC1)C(N)=O` [Example 7], the inhibition at 12.5 µM stood at 83.1%.

Turning to `CCOCCn1c(CN[C@@H](C)C(N)=O)nc2ccc(-c3ccc(OC(F)(F)F)cc3)cc21` [Example 145], the inhibition at 12.5 µM turned out to be 1.3%.

On to `CCOCCn1c(CN[C@@H](C)C(N)=O)nc2ccc(-c3cccc(C)c3)cc21` [Example 152], for which the inhibition at 12.5 µM was found to be 8.9%.

For the molecule `NC(=O)[C@@H]1CCCN1Cc1nc2ccc(Oc3ccccc3)cc2n1C[C@@H]1CCCO1` [Example 21], the inhibition at 12.5 µM is 100%.

As for `CCOCCn1c(CN[C@@H](C)C(N)=O)nc2ccc(Oc3ccc(OC(F)(F)F)cc3)cc21` [Example 43], the inhibition at 12.5 µM was found to be 61%.

As for `CCOCCn1c(CNC(C)(C)C(N)=O)nc2ccc(Oc3ccc(F)cc3)cc21` [Example 5, N^2-{[1-(2-ethoxyethyl)-6-(4-fluorophenoxy)-1H-benzimidazol-2-yl]methyl}-2-methylalaninamide], the inhibition at 12.5 µM came to 59.3%.

Take `CCOCCn1c(CN[C@@H](C)C(N)=O)nc2cc(Cl)c(-c3ccccc3)cc21` [Example 177]: the inhibition at 12.5 µM is 22.5%.

Turning to `C[C@H](NCc1nc2ccc(Oc3ccc(F)cc3)cc2n1CCO)C(N)=O` [Example 117, N^2-{[6-(4-fluorophenoxy)-1-(2-hydroxyethyl)-1H-benzimidazol-2-yl]methyl}-L-alaninamide], the inhibition at 12.5 µM amounted to 78.8%.

Turning to `CCOCCn1c(CN[C@@H](C)C(=O)NCCN2CCOCC2)nc2ccc(Oc3ccc(F)cc3)cc21` [Example 89], the inhibition at 12.5 µM amounted to 83%.

As for `CCOCCn1c(CN[C@@H](C)C(N)=O)nc2cc(-c3ccc(OC)cc3)ccc21` [Example 192, N^2-{[1-(2-ethoxyethyl)-5-(4-methoxyphenyl)-1H-benzimidazol-2-yl]methyl}-L-alaninamide trifluoroacetate], the inhibition at 12.5 µM is 11.9%.

In the case of `CCOCCn1c(CN[C@@H](C)C(N)=O)nc2cc(Cl)c(-c3ccc(F)cc3F)cc21` [Example 179], the inhibition at 12.5 µM came to 67.4%.

`CCOCCn1c(CN[C@@H](C)C(N)=O)nc2ccc(Oc3ccccc3Cl)cc21` [Example 31]: the inhibition at 12.5 µM came to 92.1%.

As for `CCOCCn1c(CN[C@@H](C)C(N)=O)nc2cc(F)c(-c3ccccc3)cc21` [Example 185], the inhibition at 12.5 µM came to 64.6%.

`C[C@H](NCc1nc2ccc(Oc3ccccc3)cc2n1C1CCCC1)C(N)=O` [Example 26]: the inhibition at 12.5 µM was determined as 26.6%.

On to `CCOCCn1c(CN[C@@H](C)C(=O)N2CCNC(C(F)(F)F)C2)nc2ccc(Oc3ccc(F)cc3)cc21` (stereo partly shown) [Example 108], for which the inhibition at 12.5 µM worked out at 85.3%.

In the case of `CCOCCn1c(CN[C@@H](C)C(N)=O)nc2ccc(OCc3ccc(F)cc3)cc21` [Example 78, N^2-({1-(2-ethoxyethyl)-6-[(4-fluorobenzyl)oxy]-1H-benzimidazol-2-yl}methyl)-L-alaninamide], the inhibition at 12.5 µM worked out at 22.2%.

For `CCOCCn1c(CN[C@@H](C)C(N)=O)nc2ccc(Oc3ccccc3)nc21` [Example 79, N^2-{[3-(2-ethoxyethyl)-5-phenoxy-3H-imidazo[4,5-b]pyridin-2-yl]methyl}-L-alaninamide], the inhibition at 12.5 µM is 3.5%.

Consider `C[C@H](NCc1nc2ccc(Oc3ccc(OC(F)(F)F)cc3)cc2n1C[C@H]1CCCO1)C(N)=O` [Example 132], for which the inhibition at 12.5 µM stood at 86.4%.

With `CCOCCn1c(CN[C@@H](C)C(N)=O)nc2cc(C)c(-c3ccc(F)c(F)c3)cc21` [Example 190], the inhibition at 12.5 µM is 34.3%.

As for `CC(C)(NCc1nc2ccc(Oc3ccc(F)cc3)cc2n1C1CCOCC1)C(N)=O` [Example 8], the inhibition at 12.5 µM is 90.4%.

For the molecule `CCOCCCn1c(CN[C@@H](C)C(N)=O)nc2ccc(Oc3ccc(F)cc3)cc21` [Example 47], the inhibition at 12.5 µM amounted to 86.6%.

As for `CCOCCn1c(CN[C@@H](C)C(N)=O)nc2c(F)cc(-c3ccc(F)cc3)cc21` [Example 114, N^2-{[1-(2-ethoxyethyl)-4-fluoro-6-(4-fluorophenyl)-1H-benzimidazol-2-yl]methyl}-L-alaninamide], the inhibition at 12.5 µM worked out at 6.5%.

Regarding `CCOCCn1c(CN[C@@H](C)C(N)=O)nc2ccc(Oc3cccc(F)c3)cc21` [Example 53], the inhibition at 12.5 µM came to 94%.

Consider `CCOCCn1c(CNC(C)(C)C(N)=O)nc2ccc(-c3ccc(F)cc3Cl)cc21` [Example 156], for which the inhibition at 12.5 µM worked out at 71.2%.

For `CCOCCn1c(CN[C@@H](CC)C(N)=O)nc2ccc(Oc3ccccc3)cc21` [Example 37], the inhibition at 12.5 µM worked out at 42.3%.

Take `CCOCCn1c(CN[C@@H](C)C(N)=O)nc2ccc(-c3ccc(C)c(C)c3)cc21` [Example 161]: the inhibition at 12.5 µM is 76.2%.

`CCOCCn1c(CN[C@@H](C)C(=O)N2CCOCC2)nc2ccc(Oc3ccc(F)cc3)cc21` [Example 90]: the inhibition at 12.5 µM stood at 96.1%.

In the case of `CCOCCn1c(CNC(C)(C)C(N)=O)nc2ccc(-c3ccc(F)cc3)cc21` [Example 149], the inhibition at 12.5 µM was 30.6%.

Consider `CCn1c(CN[C@@H](C)C(N)=O)nc2ccc(Oc3ccc(F)c(F)c3)cc21` [Example 97], for which the inhibition at 12.5 µM came to 82.4%.

With `CCOCCn1c(CN[C@@H](C)C(N)=O)nc2ccc(Oc3ccc(C)cc3)cc21` [Example 42], the inhibition at 12.5 µM worked out at 76.7%.

For `CCOCCn1c(CNC(C)(C)C(N)=O)nc2ccc(-c3ccc(F)c(OC)c3)cc21` [Example 175], the inhibition at 12.5 µM was found to be 5.9%.

Take `CCOCCn1c(CN[C@@H](C)C(N)=O)nc2ccc(-c3ccccc3C)cc21` [Example 153]: the inhibition at 12.5 µM came out at 28.5%.

Turning to `C[C@H](NCc1nc2ccc(Oc3ccc(F)cc3)cc2n1C[C@H]1CCCO1)C(N)=O` [Example 51], the inhibition at 12.5 µM came to 90.5%.

As to `CCOCCn1c(CNC(C)(C)C(N)=O)nc2ccc(Oc3cccc(Cl)c3)cc21` [Example 30], the inhibition at 12.5 µM was 31.5%.

`CCOCCn1c(CNCC(N)=O)nc2ccc(-c3ccc(Cl)cc3)cc21` [Example 72]: the inhibition at 12.5 µM came out at 7.3%.

Source of the values: patent publication US20130303535A1, “NOVEL BICYCLIC HETEROCYCLIC COMPOUND” (priority 2008, published 2013).
